Assay results: ChEMBL document CHEMBL1156829 (Proc Natl Acad Sci U S A, 2008)

Columns and labels:
Plasmodium falciparum [1] = assay: NOVARTIS: Inhibition of Plasmodium falciparum 3D7 (drug-susceptible) proliferation in erythrocyte-based infection assay; format: functional, organism-based; conditions: Plasmodium falciparum, 3D7
Plasmodium falciparum [2] = assay: NOVARTIS: Inhibition of Plasmodium falciparum W2 (drug-resistant) proliferation in erythrocyte-based infection assay; format: functional, organism-based; conditions: Plasmodium falciparum, W2; read-out: EC50
[3] = NOVARTIS: Cytotoxicity against human hepatocellular carcinoma cell line (Huh7); format: toxicity, cell-based, Huh-7; conditions: Huh7 cells (hepatocellular carcinoma cell line)

| SMILES | EC50 (Plasmodium falciparum [1]) [nM] | EC50 (Plasmodium falciparum [2]) [nM] | CC50 [3] [nM] |
| --- | --- | --- | --- |
| COC(=O)C1=C(O)/C(=C\c2cc(C)n(-c3ccccc3F)c2C)N=C1C | > 974 | > 1250 | > 10000 |
| N#Cc1nc(C(=O)N2CCOCC2)oc1N1CCOCC1 | 995 | > 1250 | > 10000 |
| CC(C)Sc1nc2c(c(=O)n1Cc1ccco1)C1(CCCCC1)Cc1ccccc1-2 | 9560 | > 12500 | > 100000 |
| CCOC(=O)C1=C(C)N=c2sc(=Cc3ccccc3OCc3ccccc3)c(=O)n2C1c1ccccc1OC(C)C (configuration not stated) | 9730 | > 12500 | > 100000 |
| Cc1ccn(C(=O)NCCNC(=O)Nc2ccc(Cc3ccc(NC(=O)NCCNC(=O)n4ccc(C)n4)cc3)cc2)n1 | > 953 | > 1250 | > 10000 |
| COc1cccc(CN2CCN(C(=O)c3c(C)noc3C)[C@@H](C)C2)c1 | > 936 | > 1250 | > 10000 |
| CON(C)C(=O)c1cccc2ccccc12 | 856 | > 1250 | > 10000 |
| Cc1ccc(N=C2C(=O)Nc3ccc(C)c(Br)c32)c(O)c1 | > 963 | > 1250 | > 10000 |
| CCOc1ccc(N2C(=O)c3ccccc3NC2(C)C)cc1 | > 9970 | > 12500 | > 100000 |
| Cc1nn(-c2cc(N3CCOCC3)ccc2[N+](=O)[O-])c(=O)c2ccccc12 | > 995 | > 1250 | > 10000 |
| CCOC(=O)c1ccc(NC(=O)c2sc(NC(=O)c3cc(OC)c(OC)c(OC)c3)c(C(=O)OCC)c2C)cc1 | > 995 | > 1250 | > 10000 |
| O=C(/C=C/c1ccccc1Cl)Nc1ccc(Oc2ccc3ccccc3c2Cl)c(Cl)c1 | > 958 | > 1250 | > 10000 |
| O=C(Nc1ccccc1Cl)NC1(C(=O)NCC2CCCO2)CCCCC1 (configuration not stated) | > 984 | > 1250 | > 10000 |
| CC(C)CNC(=O)c1cnc(NCCCN(C)C)nc1NCCc1ccccc1 | 983 | > 1250 | > 10000 |
| O=C(O)c1c[nH]c2cc(N3CCCCCC3)c(F)cc2c1=O | > 9800 | > 12500 | > 100000 |
| CS(=O)(=O)Nc1cccc(-c2cnc(N)c(-c3ccc(C(=O)N4CCOCC4)cc3)n2)c1 | > 976 | > 1250 | > 10000 |
| CCN1CCN(c2cc(C)c3cc(NC(=O)/C=C/c4ccccc4Cl)ccc3n2)CC1 | 966 | > 1250 | > 10000 |
| CC(C)CNc1nc(NCCN2CCCCC2)ncc1C(=O)NCc1ccccc1 | 1000 | > 1250 | > 10000 |
| COc1ccc(CCNc2nc(NCCCn3ccnc3)ncc2C(=O)NCc2ccccc2)cc1OC | 1000 | > 1250 | > 10000 |
| OCC1CCCN1c1nccnc1-c1ccccc1Oc1ccccc1 (configuration not stated) | > 868 | > 1250 | > 10000 |
| CCN(CC)Cc1cc(Nc2nc3ccccc3[nH]2)cc(CN(CC)CC)c1O | 864 | > 1250 | > 10000 |
| COc1ccc(Cn2nnnc2CN2CCc3ccccc3C2)cc1 | > 853 | > 1250 | > 10000 |
| O=C(O)CC12CC3CC(C1)CC(c1ccc([N+](=O)[O-])cc1)(C3)C2 | > 883 | > 1250 | > 10000 |
| COc1ccc(/C=C/C(=O)Nc2ccc3nc(N4CCN(C)CC4)cc(C)c3c2)cc1OC | 872 | > 1250 | > 10000 |
| Cc1c(NC(=S)N2CCOCC2)c(=O)n(-c2ccccc2)n1C | > 919 | > 1250 | > 10000 |
| O=C(CSc1nnc2c(n1)[nH]c1ccccc12)Nc1ccc([N+](=O)[O-])cc1 | 9110 | > 12500 | > 100000 |
| COc1cc(O)c2c(=O)cc(CCOC(=O)Nc3ccccc3)[nH]c2c1 | > 905 | > 1250 | > 10000 |

| SMILES | EC50 (Plasmodium falciparum [1]) [nM] | EC50 (Plasmodium falciparum [2]) [nM] | CC50 [3] [nM] |
| --- | --- | --- | --- |
| Cc1cc(C)n(-c2ccc(NC(=O)C3CCN(Cc4cc(C)c(C)o4)CC3)cc2)n1 | 888 | > 1250 | > 10000 |
| Nc1ccc(-c2cc(N)n(-c3ccc(Oc4ccccc4)c(S(=O)(=O)O)c3)n2)cc1 | > 921 | > 1250 | > 10000 |
| CC(C)CNC(=O)c1cnc(NCCC2CCCN2C)nc1NCC1CCCCC1 (configuration not stated) | 920 | > 1250 | > 10000 |
| O=C(COC(=O)c1ccc2c(c1)C(=O)N(c1ccc3ccccc3c1)C2=O)c1ccc(Br)cc1 | > 919 | > 1250 | > 10000 |
| CN(C)c1nnc(/C(C#N)=C/c2cc(C(=O)c3cccc(Cl)c3)cn2C)o1 | 936 | > 1250 | > 10000 |
| c1cn2c(-c3ccc(N4CCOCC4)cc3)cnc2c(NCc2ccc3c(c2)OCO3)n1 | > 927 | > 1250 | > 10000 |
| CN(C)CCCNC(=O)c1ccc(-c2cncc(-c3cccc(O)c3)n2)cc1 | 923 | > 1250 | > 10000 |
| O=[N+]([O-])c1cc(NC2OC(CO)C(OC3OC(CO)C(O)C(O)C3O)C(O)C2O)ccc1Cl (configuration not stated) | > 848 | > 1250 | > 10000 |
| Cc1ccccc1Oc1ccc(S(=O)(=O)NC(CC(C)C)C(=O)O)cc1 (configuration not stated) | > 846 | > 1250 | > 10000 |
| Cc1cccc(N(C)c2ccnc3c(-c4cccc(C(N)=O)c4)cnn23)c1 | > 843 | > 1250 | > 10000 |
| O=C(NCc1ccccc1)c1cnc(NCCN2CCCCC2)nc1NCCc1ccccc1 | 950 | > 1250 | > 10000 |
| CC1CCCCN1CCCNc1ncc(C(=O)NCc2ccccc2)c(NC2CCCC2)n1 (configuration not stated) | 943 | > 1250 | > 10000 |
| CC1(C)CC(=O)c2cc(-c3ccc(Br)cc3)n(-c3ccccc3F)c2C1 | > 972 | > 1250 | > 10000 |
| CCN1CC=C2C(C#N)=C(N)C(C#N)(C#N)C(c3ccc(C)s3)C2C1 (configuration not stated) | > 877 | > 1250 | > 10000 |
| CC(=O)C1=C(O)C(=O)N(c2ccc(Br)cn2)C1c1ccccc1[N+](=O)[O-] (configuration not stated) | > 9610 | > 12500 | > 100000 |
| CCCCCOC(=O)C1=C(C)Nc2ncnn2C1c1cccc([N+](=O)[O-])c1 (configuration not stated) | > 988 | > 1250 | > 10000 |
| CN1CCN(C(=O)c2cccc(-c3nc(-c4ccncc4)cnc3N)c2)CC1 | > 1000 | > 1250 | > 10000 |
| CCN(CC)c1ccc2c(c1)OC(N)=C(C#N)C2c1ccsc1 (configuration not stated) | > 9540 | > 12500 | > 100000 |
| Cc1ccc2c(nc3sc(=Cc4ccc(-c5ccccc5F)o4)c(=O)n32)c1C | 921 | > 1250 | > 10000 |
| CC1(C)CC(=O)C(=CNc2nc3c(s2)CCc2c-3cnn2-c2ccccc2)C(=O)C1 | > 942 | > 1250 | > 10000 |
| COc1ccc(CNC(=O)CCc2cn(Cc3cc(C)ccc3C)c3ccccc23)cc1OC | > 842 | > 1250 | > 10000 |
| FC(F)(F)COc1ccc(OCC(F)(F)F)c(-c2ncnn2-c2ccccc2)c1 | > 9910 | > 12500 | > 100000 |
| O=C(Cn1c2ccccc2c(=O)c2cc([N+](=O)[O-])ccc21)Nc1cccc(Cl)c1 | > 880 | > 1250 | > 10000 |
| CC1CCCCN1CCCNc1ncc(C(=O)NCCCN2CCCC2=O)c(NCC2CCCCC2)n1 (configuration not stated) | 850 | > 1250 | > 10000 |
| CC1Cc2ccccc2N1C(=O)Cn1c(=O)oc2ccccc21 (configuration not stated) | > 907 | > 1250 | > 10000 |
| CCCCCc1ccc(-c2cn3nc(CCCCC)sc3n2)cc1 | > 921 | > 1250 | > 10000 |
| Cc1ccc(S(=O)(=O)Nc2ccc(C(=O)NCCC(C)C)cc2)cc1 | > 837 | > 1250 | > 10000 |
